Source: the supplement of paper PMC10307832

Legend:
Assay in all cases: relative viability (nuclei count vs DMSO), 5 days (fraction); higher = more cells survive
IPA-3 + Pictilisib = compound: C1=CC=C2C(=C1)C=CC(=C2SSC3=C(C=CC4=CC=CC=C43)O)O [IPA-3] + CS(=O)(=O)N1CCN(Cc2cc3nc(-c4cccc5[nH]ncc45)nc(N4CCOCC4)c3s2)CC1 [Pictilisib] (partner 1 µM)
Procedure, shortened: (§1)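 A single step with final 0.05% Triton X-100, 1% formaldehyde and 1 ug/ml Hoechst fixed the cells and stained nuclei 5 days after treatment. Lung cancer cell lines in 1536-well plates had been treated by pin tool the day after seeding with one drug alone or a fixed anchor-drug dose plus five library-drug doses (not always all listed) in √10 steps, and nuclei were counted on 4× images. Relative viability is the ratio of nuclei in treated wells to nuclei in vehicle wells, taken as the median of duplicate plates.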

IPA-3 + Decitabine = compound: C1=CC=C2C(=C1)C=CC(=C2SSC3=C(C=CC4=CC=CC=C43)O)O [IPA-3] + Nc1ncn([C@H]2C[C@H](O)[C@@H](CO)O2)c(=O)n1 [Decitabine] (partner 2 µM)
Procedure, shortened: as §1

Doramapimod + Pictilisib = compound: Cc1ccc(-n2nc(C(C)(C)C)cc2NC(=O)Nc2ccc(OCCN3CCOCC3)c3ccccc23)cc1 [Doramapimod] + CS(=O)(=O)N1CCN(Cc2cc3nc(-c4cccc5[nH]ncc45)nc(N4CCOCC4)c3s2)CC1 [Pictilisib] (partner 1 µM)
Procedure, shortened: as §1

RAF265 + Pictilisib = compound: Cn1c(Nc2ccc(C(F)(F)F)cc2)nc2cc(Oc3ccnc(-c4ncc(C(F)(F)F)[nH]4)c3)ccc21 [RAF265] + CS(=O)(=O)N1CCN(Cc2cc3nc(-c4cccc5[nH]ncc45)nc(N4CCOCC4)c3s2)CC1 [Pictilisib] (partner 1 µM)
Procedure, shortened: as §1

Cell Line | relative viability (IPA-3 + Pictilisib; first compound 0.2 µM) | relative viability (IPA-3 + Pictilisib; first compound 0.6325 µM) | relative viability (IPA-3 + Pictilisib; first compound 2 µM) | relative viability (IPA-3 + Pictilisib; first compound 6.325 µM) | relative viability (IPA-3 + Pictilisib; first compound 20 µM) | relative viability (IPA-3 + Decitabine; first compound 0.2 µM) | relative viability (IPA-3 + Decitabine; first compound 0.6325 µM) | relative viability (IPA-3 + Decitabine; first compound 2 µM) | relative viability (IPA-3 + Decitabine; first compound 6.325 µM) | relative viability (IPA-3 + Decitabine; first compound 20 µM) | relative viability (Doramapimod + Pictilisib; first compound 0.02 µM) | relative viability (Doramapimod + Pictilisib; first compound 0.06325 µM) | relative viability (Doramapimod + Pictilisib; first compound 0.2 µM) | relative viability (Doramapimod + Pictilisib; first compound 0.6325 µM) | relative viability (Doramapimod + Pictilisib; first compound 2 µM) | relative viability (RAF265 + Pictilisib; first compound 0.01 µM) | relative viability (RAF265 + Pictilisib; first compound 0.03162 µM) | relative viability (RAF265 + Pictilisib; first compound 0.1 µM) | relative viability (RAF265 + Pictilisib; first compound 0.3162 µM) | relative viability (RAF265 + Pictilisib; first compound 1 µM)
NCI-H650 | 1.15 | 0.89 | 0.922 | 1.17 | 1.15 | 0.297 | 0.33 | 0.292 | 0.294 | 0.348 | 0.887 | 0.818 | 0.984 | 0.982 | 0.859 | 0.805 | 0.94 | 0.766 | 0.698 | 0.466
EKVX | 0.62 | 0.421 | 0.499 | 0.484 | 0.575 | 0.342 | 0.396 | 0.26 | 0.297 | 0.332 | 0.391 | 0.375 | 0.364 | 0.513 | 0.352 | 0.425 | 0.414 | 0.429 | 0.242 | 0.334
NCI-H460 | 0.479 | 0.321 | 0.36 | 0.408 | 0.557 | 0.65 | 0.41 | 0.492 | 0.465 | 0.324 | 0.374 | 0.383 | 0.266 | 0.548 | 0.291 | 0.5 | 0.455 | 0.403 | 0.201 | 0.179
LCLC-97TM1 | 0.195 | 0.165 | 0.198 | 0.216 | 0.175 | 0.242 | 0.216 | 0.211 | 0.196 | 0.235 | 0.195 | 0.162 | 0.177 | 0.18 | 0.206 | 0.177 | 0.172 | 0.112 | 0.145 | 0.107
COR-L23 | 1.01 | 0.75 | 0.764 | 0.615 | 0.72 | 0.553 | 0.469 | 0.41 | 0.419 | 0.256 | 0.812 | 0.791 | 0.796 | 0.797 | 0.751 | 0.874 | 0.663 | 0.626 | 0.368 | 0.323
NCI-H1355 | 0.396 | 0.396 | 0.466 | 0.484 | 0.401 | 0.385 | 0.36 | 0.375 | 0.349 | 0.34 | 0.438 | 0.356 | 0.386 | 0.366 | 0.332 | 0.498 | 0.409 | 0.322 | 0.214 | 0.204
NCI-H1666 | 0.541 | 0.521 | 0.445 | 0.403 | 0.541 | 0.661 | 0.759 | 0.737 | 0.868 | 0.706 | 0.502 | 0.397 | 0.37 | 0.369 | 0.312 | 0.583 | 0.453 | 0.329 | 0.426 | 0.249
EPLC-272H | 0.309 | 0.338 | 0.273 | 0.343 | 0.401 | 0.406 | 0.397 | 0.325 | 0.38 | 0.397 | 0.344 | 0.418 | 0.377 | 0.296 | 0.275 | 0.35 | 0.349 | 0.311 | 0.237 | 0.191
ChaGo-K-1 | 0.728 | 0.785 | 0.663 | 0.824 | 0.824 | 0.536 | 0.479 | 0.503 | 0.509 | 0.487 | 0.805 | 0.888 | 0.96 | – | 0.688 | 0.786 | 0.833 | 0.8 | 0.765 | 0.56
NCI-H1651 | 0.649 | – | 0.581 | 0.659 | 0.799 | 0.699 | 0.596 | 0.631 | 0.644 | 0.549 | 0.605 | 0.478 | 0.551 | 0.695 | 0.519 | 0.523 | 0.539 | 0.433 | 0.397 | 0.463
HCC-44 | 0.605 | 1.49 | 0.53 | 1.04 | 0.63 | 0.951 | 0.943 | 0.879 | 0.924 | 0.846 | 1.46 | 0.58 | 0.546 | 0.581 | 0.35 | 0.631 | 0.697 | 0.55 | 0.507 | 0.561
SW 1573 | 0.593 | 0.503 | 0.6 | 0.479 | 0.61 | 0.7 | 0.452 | 0.485 | 0.56 | 0.121 | 0.448 | 0.375 | 0.408 | 0.423 | 0.379 | 0.597 | 0.445 | 0.542 | 0.399 | 0.221
PC-3 [JPC-3] | 0.863 | 0.774 | 0.696 | 0.668 | 0.772 | 0.849 | 0.837 | 0.813 | 0.779 | 0.855 | 0.809 | 0.772 | 0.771 | 0.897 | 0.421 | 0.686 | 0.676 | 0.727 | 0.333 | 0.417
LOU-NH91 | 0.505 | 0.501 | 0.567 | 0.523 | 0.57 | 0.821 | 0.856 | 0.815 | 0.82 | 0.888 | 0.582 | 0.524 | 0.493 | 0.524 | 0.406 | 0.529 | 0.487 | 0.495 | 0.481 | 0.474
PC-14 | 1.1 | 0.562 | 0.804 | 0.678 | 1.19 | 0.29 | 0.152 | 0.226 | 0.187 | 0.144 | 0.636 | 0.644 | 0.645 | 0.655 | 0.616 | 0.737 | – | 0.733 | – | 0.312
NCI-H2087 | 0.891 | 0.784 | 0.894 | 0.936 | 1.01 | 0.344 | 0.321 | 0.267 | 0.261 | 0.255 | 0.754 | 0.795 | 0.83 | 0.764 | 0.847 | 0.96 | 0.907 | 0.884 | 0.46 | 0.372
